pIC50: −log10 of the molar value.
Tested on: PDE4
Assay: Evaluation of PDE4 inhibitory activity, scintillation proximity assay
Type: biochemical
Details: scintillation proximity assay; class symbols of Evaluation 1; read-out: PDE4 Inhibitory Activity (concentration for the inhibition rate of 50%, IC50), Evaluation 1
Description: The BDE4 inhibitory activity was measured using scintillation proximity assay (SPA) as follows. First, a test compound dissolved in dimethyl sulfoxide was diluted 1:10 in reaction buffer solution which contained 50 mM of Tris-HCl with pH 7.4, 8.3 mM of MgCl2, 1.7 mM of EGTA, and 3 mg/mL of bovine serum albumin (BSA). Then, 10 μL of the diluted solution was added in a 96-well assay plate. Moreover, 50 μL of PDE4 (enzyme preparation) diluted 1:375 in the reaction buffer solution was added, and then 40 μL of [2,8-^3H]-adenosine-3′,5′-cyclic phosphate triethylammonium salt diluted 1:1000 in the reaction buffer solution was added. The mixture was allowed to stand at room temperature for 120 minutes. Thereafter, […] of RNA binding YSi-SPA beads suspension containing ZnSO4 was added and the mixture was allowed to stand at room temperature for 15 minutes, followed by adsorption of the enzyme reaction product to the beads. After that, the radioactivity was measured using a liquid scintillation counter for a 96-well plate. The mixture without the enzyme preparation added but only the reaction buffer solution added is a blank, and the mixture with the enzyme preparation added and only dimethyl sulfoxide added instead of the test compound is a control.
In addition, the PDE4 inhibitory activity (concentration that inhibits PDE4 activity by 50%=concentration for the inhibition rate of 50% (IC50)) of the test compound was calculated from the inhibition curves based on the inhibition rates for various concentrations of the test compound.

| Compound | pIC50 |
| --- | --- |
| Cc1ccc(-c2nccs2)c2oc(N3CC4CCCC(C3)N4)nc12 [Example 27, 2-(3,9-Diazabicyclo[3.3.1]nonan-3-yl)-4-methyl-7-(thiazol-2-yl)benzo[d]oxazole] | > 7.00 |
| CCOC(=O)c1cc(-n2cccn2)c2oc(N3CC4CCCC(C3)N4)nc2c1 [Example 93, Ethyl 2-(3,9-diazabicyclo[3.3.1]nonan-3-yl)-7-(1H-pyrazol-1-yl)benzo[d]oxazole-5-carboxylate] | 6.00 to 7.00 |
| COC(C)(c1cc(-c2nccs2)c2oc(N3CC4CCC(C3)N4)nc2c1)C(F)(F)F (stereo not drawn) [Example 102, 2-(3,8-Diazabicyclo[3.2.1]octan-3-yl)-7-(thiazol-2-yl)-5-(1,1,1-trifluoro-2-methoxypropan-2-yl)benzo[d]oxazole] | > 7.00 |
| C=CCOc1cc(-c2nccs2)c2oc(N3CC4CCC(C3)N4)nc2c1 [Example 72, 5-(Allyloxy)-2-(3,8-diazabicyclo[3.2.1]octan-3-yl)-7-(thiazol-2-yl)benzo[d]oxazole] | > 7.00 |
| CC(C)c1cc(-c2nccs2)c2oc(N3CC4COCC(C3)N4)nc2c1 [Example 23, 7-(5-Isopropyl-7-(thiazol-2-yl)benzo[d]oxazol-2-yl)-3-oxa-7,9-diazabicyclo[3.3.1]nonane] | 6.00 to 7.00 |
| FC(F)(F)c1c(Cl)cc(-c2nccs2)c2oc(N3CC4COCC(C3)N4)nc12 [Example 19, 7-(5-Chloro-7-(thiazol-2-yl)-4-(trifluoromethyl)benzo[d]oxazol-2-yl)-3-oxa-7,9-diazabicyclo[3.3.1]nonane] | > 7.00 |
| OC(c1ccc(-c2nccs2)c2oc(N3CC4CC(C3)N4)nc12)C(F)F (stereo not drawn) [Example 125, 1-(2-(3,6-Diazabicyclo[3.1.1]heptan-3-yl)-7-(thiazol-2-yl)benzo[d]oxazol-4-yl)-2,2-difluoroethan-1-ol] | > 7.00 |
| FC(F)(F)Oc1cc(-c2nccs2)c2oc(N3CC4CC(C3)N4)nc2c1 [Example 56, 2-(3,6-Diazabicyclo[3.1.1]heptan-3-yl)-7-(thiazol-2-yl)-5-(trifluoromethoxy)benzo[d]oxazole] | > 7.00 |
| CCOC(=O)c1ccc(-c2nccs2)c2oc(N3CC4CC(C3)N4)nc12 [Example 113, ethyl 2-(3,6-diazabicyclo[3.1.1]heptan-3-yl)-7-(thiazol-2-yl)benzo[d]oxazole-4-carboxylate] | > 7.00 |
| CNC(=O)c1cc(-c2nccs2)c2oc(N3CC4CCC(C3)N4)nc2c1 [Example 100, 2-(3,8-Diazabicyclo[3.2.1]octan-3-yl)-N-methyl-7-(thiazol-2-yl)benzo[d]oxazole-5-carboxamide] | > 7.00 |
| COC(c1cc(-c2nccs2)c2oc(N3CC4CCCC(C3)N4)nc2c1)C(F)(F)F (stereo not drawn) [Example 145, 2-(3,9-Diazabicyclo[3.3.1]nonan-3-yl)-7-(thiazol-2-yl)-5-(2,2,2-trifluoro-1-methoxyethyl)benzo[d]oxazole] | > 7.00 |
| COc1ccc(-c2nccs2)c2oc(N3CC4CCCC(C3)N4)nc12 [Example 77, 2-(3,9-Diazabicyclo[3.3.1]nonan-3-yl)-4-methoxy-7-(thiazol-2-yl)benzo[d]oxazole] | > 7.00 |
| c1csc(-c2ccc(OC3CCC3)c3nc(N4CC5CCC(C4)N5)oc23)n1 [Example 81, 2-(3,8-Diazabicyclo[3.2.1]octan-3-yl)-4-cyclobutoxy-7-(thiazol-2-yl)benzo[d]oxazole] | > 7.00 |
| CCOC(=O)c1cc(-c2nccs2)c2oc(N3CC4CCC(C3)N4)nc2c1 [Example 86, Ethyl 2-(3,8-diazabicyclo[3.2.1]octan-3-yl)-7-(thiazol-2-yl)benzo[d]oxazole-5-carboxylate] | > 7.00 |
| CC(O)c1ccc(-c2nccs2)c2oc(N3CC4CCC(C3)N4)nc12 (stereo not drawn) [Example 124, 1-(2-(3,8-Diazabicyclo[3.2.1]octan-3-yl)-7-(thiazol-2-yl)benzo[d]oxazol-4-yl)ethan-1-ol] | > 7.00 |
| NS(=O)(=O)c1cc(-c2nccs2)c2oc(N3CC4CC(C3)N4)nc2c1 [Example 58, 2-(3,6-Diazabicyclo[3.1.1]heptan-3-yl)-7-(thiazol-2-yl)benzo[d]oxazole-5-sulfonamide] | > 7.00 |
| FC(F)(F)Oc1c(Cl)cc(-c2ncco2)c2oc(N3CC4CCC(C3)N4)nc12 [Example 9, 2-(3,8-Diazabicyclo[3.2.1]octan-3-yl)-5-chloro-7-(oxazol-2-yl)-4-(trifluoromethoxy)benzo[d]oxazole] | > 7.00 |
| CCOC(=O)c1cc(-n2cccn2)c2oc(N3CC4COCC(C3)N4)nc2c1 [Example 92, Ethyl 2-(3-oxa-7,9-diazabicyclo[3.3.1]nonan-7-yl)-7-(1H-pyrazol-1-yl)benzo[d]oxazole-5-carboxylate] | < 6.00 |
| OC(c1cc(-c2nccs2)c2oc(N3CC4CC(C3)N4)nc2c1)C(F)(F)F (stereo not drawn) [Example 135, 1-(2-(3,6-Diazabicyclo[3.1.1]heptan-3-yl)-7-(thiazol-2-yl)benzo[d]oxazol-5-yl)-2,2,2-trifluoroethan-1-ol] | > 7.00 |

Same assay, conditions: scintillation proximity assay; read-out: PDE4 Inhibitory Activity (Evaluation 1; concentration for the inhibition rate of 50%)

| Compound | pIC50 |
| --- | --- |
| FC(F)(Oc1ccc(-c2nccs2)c2oc(N3CC4CC(C3)N4)nc12)c1nc2ccccc2o1 [Example 403, 4-(Benzo[d]oxazol-2-yldifluoromethoxy)-2-(3,6-diazabicyclo[3.1.1]heptan-3-yl)-7-(thiazol-2-yl)benzo[d]oxazole] | > 7.00 |
| COC(C)c1ccc(-c2nccs2)c2oc(N3CC4CC(C3)N4)nc12 (stereo not drawn) [Example 241, 2-(3,6-Diazabicyclo[3.1.1]heptan-3-yl)-4-(1-methoxyethyl)-7-(thiazol-2-yl)benzo[d]oxazole] | > 7.00 |
| O=C(O)c1ccc(-c2nccs2)c2oc(N3CC4CC(C3)N4)nc12 [Example 366, 2-(3,6-Diazabicyclo[3.1.1]heptan-3-yl)-7-(thiazol-2-yl)benzo[d]oxazole-4-carboxylic acid] | 6.00 to 7.00 |
| CCC(O)c1cc(-c2nccs2)c2oc(N3CC4CCC(C3)N4)nc2c1OC(F)(F)F (stereo not drawn) [Example 204, 1-(2-(3,8-Diazabicyclo[3.2.1]octan-3-yl)-7-(thiazol-2-yl)-4-(trifluoromethoxy)benzo[d]oxazol-5-yl)propan-1-ol] | > 7.00 |
| COC(C)(C)C(F)(F)Oc1ccc(-c2nccs2)c2oc(N3CC4CC(C3)N4)nc12 [Example 393, 2-(3,6-Diazabicyclo[3.1.1]heptan-3-yl)-4-(1,1-difluoro-2-methoxy-2-methylpropoxy)-7-(thiazol-2-yl)benzo[d]oxazole] | > 7.00 |
| OCC(F)(F)Oc1ccc(-c2cscn2)c2oc(N3CC4CCC(C3)N4)nc12 [Example 312, 2-((2-(3,8-Diazabicyclo[3.2.1]octan-3-yl)-7-(thiazol-4-yl)benzo[d]oxazol-4-yl)oxy)-2,2-difluoroethan-1-ol] | > 7.00 |
| NC(=O)COC(c1ccc(-c2nccs2)c2oc(N3CC4CC(C3)N4)nc12)C(F)(F)F (stereo not drawn) [Example 256, 2-(1-(2-(3,6-Diazabicyclo[3.1.1]heptan-3-yl)-7-(thiazol-2-yl)benzo[d]oxazol-4-yl)-2,2,2-trifluoroethoxy)acetamide] | > 7.00 |
| COC(C)(C)c1cc(-c2nccs2)c2oc(N3CC4CCCC(C3)N4)nc2c1OC(F)(F)F [Example 200, 2-(3,9-Diazabicyclo[3.3.1]nonan-3-yl)-5-(2-methoxypropan-2-yl)-7-(thiazol-2-yl)-4-(trifluoromethoxy)benzo[d]oxazole] | > 7.00 |
| O=C(c1cc(-c2nccs2)c2oc(N3CC4CCC(C3)N4)nc2c1OC(F)(F)F)N1CC(O)(C(F)(F)F)C1 [Example 194, (2-(3,8-Diazabicyclo[3.2.1]octan-3-yl)-7-(thiazol-2-yl)-4-(trifluoromethoxy)benzo[d]oxazol-5-yl)(3-hydroxy-3-(trifluoromethyl)azetidin-1-yl)methanone] | 6.00 to 7.00 |
| CC(C)(O)C(F)(F)OC(c1ccc(-c2nccs2)c2oc(N3CC4CC(C3)N4)nc12)C(F)(F)F (stereo not drawn) [Example 257, 1-(1-(2-(3,6-Diazabicyclo[3.1.1]heptan-3-yl)-7-(thiazol-2-yl)benzo[d]oxazol-4-yl)-2,2,2-trifluoroethoxy)-1,1-difluoro-2-methylpropan-2-ol] | > 7.00 |
| CCOC(=O)c1cc(-c2nccs2)c2oc(N3CC4CCC(C3)N4)nc2c1OC(F)(F)F [Example 186, Ethyl 2-(3,8-diazabicyclo[3.2.1]octan-3-yl)-7-(thiazol-2-yl)-4-(trifluoromethoxy)benzo[d]oxazole-5-carboxylate] | > 7.00 |
| CC(C)(O)c1cc(-c2nccs2)c2oc(N3CC4CCC(C3)N4O)nc2c1C(F)(F)F [Example 381, 3-(5-(2-Hydroxypropan-2-yl)-7-(thiazol-2-yl)-4-(trifluoromethyl)benzo[d]oxazol-2-yl)-3,8-diazabicyclo[3.2.1]octan-8-ol] | < 6.00 |
| CC(O)(c1cc(-c2nccs2)c2oc(N3CC4CC(C3)N4)nc2c1OC(F)(F)F)C(F)(F)F (stereo not drawn) [Example 216, 2-(2-(3,6-Diazabicyclo[3.1.1]heptan-3-yl)-7-(thiazol-2-yl)-4-(trifluoromethoxy)benzo[d]oxazol-5-yl)-1,1,1-trifluoropropan-2-ol] | > 7.00 |
| CC(O)(O)C(F)(F)Oc1ccc(-c2nccs2)c2oc(N3CC4CC(C3)N4)nc12 [Example 377, 1-((2-(3,6-Diazabicyclo[3.1.1]heptan-3-yl)-7-(thiazol-2-yl)benzo[d]oxazol-4-yl)oxy)-1,1-difluoropropane-2,2-diol] | > 7.00 |

Reference: US12239643B2, “Therapeutic agent for inflammatory diseases, autoimmune diseases, fibrotic diseases, and cancer diseases” (MEIJI SEIKA PHARMA CO., LTD., priority 2018, dated 2025)
